Values quoted from earlier work, collected in patent US9192588B2, “Method for producing a zeaxanthin-enriched chicken egg” (JX NIPPON OIL & ENERGY CORPORATION, priority 2011, dated 2015).
Like-named read-outs stand apart in the source and are kept apart here.

Conditions: human
[1] = twice the initial dose for further 6 months

In the case of CC1=C(/C=C/C(C)=C/C=C/C(C)=C/C=C/C=C(C)/C=C/C=C(C)/C=C/C2=C(C)C[C@@H](O)CC2(C)C)C(C)(C)C[C@H](O)C1 [chemically synthesized zeaxanthin, zeaxanthin], the “blood zeaxanthin concentration after intake” value (12.6 mg every day for 6 months) is listed as 0.85 µM, the “proportion of the increase to the intake” value (12.6 mg every day for 6 months) is listed as 0.06 μM/(mg/Day) and the “initial blood zeaxanthin concentration” value (before intake) is listed as 0.04 µM. For the same compound, the “blood zeaxanthin concentration after intake” value [1] was 1.09 µM and the “proportion of the increase to the intake” value [1] was 0.01 μM/(mg/Day).
